Measured values reported in paper PMC13210772, “Dual FLT3/MAPK14 Proteolysis-Targeting Chimera (PROTAC) Induces Potent Acute Myeloid Leukemia Cell Death” (Pharmaceuticals, 2026).
≈ marks a conversion by molar mass, not a printed value.

How the values were obtained:
[1] = molecular target: EPHB4 (Homo sapiens, UniProt P54760); test: NanoBRET CELLinib128; details: read-out: Tracer bound
[2] = molecular target: EPHB6 (Homo sapiens, UniProt O15197); test: NanoBRET CELLinib128; details: read-out: Tracer bound
[3] = molecular target: T1, EPHA5 (Homo sapiens, UniProt P54756); test: NanoBRET CELLinib128; assay type: binding; details: 1 µM; 100% no effect, 0% complete tracer displacement
T1 construct: Full-length kinase ORF (Promega, Madison, WI, USA) cloned in frame with a NanoLuc-vector was transfected into HEK293T cells; host or cells: HEK293T

[4] = molecular target: T2, TESK1 (Homo sapiens, UniProt Q15569); test: NanoBRET CELLinib128; assay type: binding; details: 100% no effect, 0% complete tracer displacement, read-out: Tracer bound
T2 construct: Full-length kinase ORF (Promega, Madison, WI, USA) cloned in frame with a NanoLuc-vector; host or cells: HEK293T

[5] = molecular target: CDK1-CCNB1 (Homo sapiens, UniProt P06493); test: NanoBRET CELLinib128; details: read-out: Tracer bound
[6] = molecular target: RON (Homo sapiens, UniProt Q04912); test: NanoBRET CELLinib128; details: read-out: Tracer bound
[7] = Nephelometric solubility; assay type: physicochemical; details: aqueous buffer, kinetic from dmso stock; PBS buffer, nephelometry
Protocol: In addition to the degradation and determination of the effects on AML cancer cells, we also determined some physicochemical parameters to assess whether the compounds are suitable for further in vivo studies. Nephelometric measurements were performed to determine the water solubility of some compounds. […] The nephelometric technique has been previously described as a high-throughput method for the solubility determination of compounds in the solvent of interest. This technique measures the intensity of scattered light when visible light passes through a suspension of the tested compound. Relative turbidity is an indication of the insolubility of compounds.
First, equidistant and logarithmic pre-dilutions were prepared in a 96-well plate with round bottoms, using 25 mM stock solutions of compounds MA68 and MA191 in DMSO. Then, 5 μL of each pre-dilution was added to 245 μL of PBS buffer in a 96-well plate with straight bottoms. Quadruplets were prepared for the blank (DMSO + PBS), and final concentrations (one plate per compound) were tested. The final concentrations measured started from 500 μM to 0.78125 μM. A NEPHELOstarplus (BMG LABTECH GmbH, Ortenberg, Germany) was used to measure the solubility, and omega-data analysis software (version 3.42 R5) was used to analyze the results.

[8] = molecular target: CAMK1 (Homo sapiens, UniProt Q14012); test: NanoBRET CELLinib128; details: read-out: Tracer bound
[9] = molecular target: EPHA8 (Homo sapiens, UniProt P29322); test: NanoBRET CELLinib128; details: read-out: Tracer bound
[10] = molecular target: T3, PTK6 (Homo sapiens, UniProt Q13882); test: NanoBRET CELLinib128; assay type: binding; details: 100% no effect, 0% complete tracer displacement, read-out: Tracer bound
T3 construct: Full-length kinase ORF (Promega, Madison, WI, USA) cloned in frame with a NanoLuc-vector was transfected into HEK293T cells; host or cells: HEK293T

[11] = molecular target: MAPK14 (Homo sapiens, UniProt Q16539); test: NanoBRET CELLinib128; details: 1 µM; 100% no effect, 0% complete tracer displacement
[12] = molecular target: T4, MARK2 (Homo sapiens, UniProt Q7KZI7); test: NanoBRET CELLinib128; assay type: binding; details: 100% no effect, 0% complete tracer displacement, read-out: Tracer bound
T4 construct: Full-length kinase ORF (Promega, Madison, WI, USA) cloned in frame with a NanoLuc-vector was transfected into HEK293T cells; host or cells: HEK293T

[13] = molecular target: ALK (Homo sapiens, UniProt Q9UM73); test: NanoBRET CELLinib128; details: read-out: Tracer bound
[14] = molecular target: STK32B (Homo sapiens, UniProt Q9NY57); test: NanoBRET CELLinib128; details: read-out: Tracer bound
[15] = molecular target: MAPK11 (Homo sapiens, UniProt Q15759); test: NanoBRET CELLinib128; details: read-out: Tracer bound
[16] = molecular target: T5, ABL1 (Homo sapiens, UniProt P00519); test: NanoBRET CELLinib128; assay type: binding; details: 100% no effect, 0% complete tracer displacement, read-out: Tracer bound
T5 construct: Full-length kinase ORF (Promega, Madison, WI, USA) cloned in frame with a NanoLuc-vector was transfected into HEK293T cells; host or cells: HEK293T

[17] = molecular target: CSF1R (Homo sapiens, UniProt P07333); test: NanoBRET CELLinib128; details: read-out: Tracer bound
[18] = molecular target: IGF1R (Homo sapiens, UniProt P08069); test: NanoBRET CELLinib128; details: read-out: Tracer bound
[19] = molecular target: GSK3A (Homo sapiens, UniProt P49840); test: NanoBRET CELLinib128; details: read-out: Tracer bound
[20] = molecular target: CSNK1D (Homo sapiens, UniProt P48730); test: NanoBRET CELLinib128; details: read-out: Tracer bound
[21] = molecular target: LTK (Homo sapiens, UniProt P29376); test: NanoBRET CELLinib128; details: read-out: Tracer bound
[22] = system: MV4-11 cells; test: Apoptosis by flow cytometry (annexin-V/propidium iodine); assay type: cell-based, human; details: 24 h
Protocol: To further assess the biological relevance of these findings, we treated MV4-11 cells with the new PROTACs, included MA49 as control, and analyzed them for early (annexin-V positive) and late apoptosis (annexin-V and propidium iodine positive) by flow cytometry. Cells in late apoptosis are more severely damaged than cells in early apoptosis. […] After 72 h, all degraders evoked equal levels of apoptosis (Figure 4c). We additionally tested these degraders in MOLM-13 cells which carry FLT3-ITD and FLT3 from a patient with AML after initial myelodysplastic syndrome. These were hardly affected by the degraders after 24 h (Figure 4d).
Figure 4 Biological and biochemical characterization of the FLT3 PROTACs. (a) MV4-11 cells were incubated for 24 h with 50 nM of the indicated compounds. Immunoblotting was performed for the indicated proteins and their phosphorylation (p-) or cleavage (cl.; indicated by arrows); β-actin was used to ensure equal sample loading. (b) MV4-11 cells were treated with the indicated agents and analyzed for early and late apoptosis by flow cytometry. (c) Same as in (b) but treatment for 72 h. (d) MOLM-13 cells were treated with the indicated agents and analyzed for early and late apoptosis by flow cytometry. […] Immunoblots show the expression of the indicated proteins and their phosphorylation (p-); β-actin was used to ensure equal sample loading. […]

T4 sequence (Q7KZI7 whole entry): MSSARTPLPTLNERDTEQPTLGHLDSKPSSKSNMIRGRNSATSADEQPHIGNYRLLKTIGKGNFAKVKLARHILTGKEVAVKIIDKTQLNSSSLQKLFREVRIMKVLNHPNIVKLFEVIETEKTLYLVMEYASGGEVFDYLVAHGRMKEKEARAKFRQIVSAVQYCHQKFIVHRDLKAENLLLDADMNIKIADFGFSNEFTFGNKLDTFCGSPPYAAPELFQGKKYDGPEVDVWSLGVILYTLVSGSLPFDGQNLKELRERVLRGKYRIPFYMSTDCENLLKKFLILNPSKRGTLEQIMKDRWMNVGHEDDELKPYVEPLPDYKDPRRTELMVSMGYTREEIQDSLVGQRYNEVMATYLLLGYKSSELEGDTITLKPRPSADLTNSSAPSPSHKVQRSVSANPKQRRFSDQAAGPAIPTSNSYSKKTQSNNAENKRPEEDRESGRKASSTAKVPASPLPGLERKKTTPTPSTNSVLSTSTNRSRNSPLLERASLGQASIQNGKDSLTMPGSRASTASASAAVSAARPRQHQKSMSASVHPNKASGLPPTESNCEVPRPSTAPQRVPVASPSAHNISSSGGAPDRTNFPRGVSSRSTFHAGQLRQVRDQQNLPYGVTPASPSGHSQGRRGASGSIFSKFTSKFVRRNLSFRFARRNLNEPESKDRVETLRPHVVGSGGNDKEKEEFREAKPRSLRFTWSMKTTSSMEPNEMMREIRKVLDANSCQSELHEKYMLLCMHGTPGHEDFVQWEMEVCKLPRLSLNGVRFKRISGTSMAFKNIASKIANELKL
Chain of LTK (P29376 17-864): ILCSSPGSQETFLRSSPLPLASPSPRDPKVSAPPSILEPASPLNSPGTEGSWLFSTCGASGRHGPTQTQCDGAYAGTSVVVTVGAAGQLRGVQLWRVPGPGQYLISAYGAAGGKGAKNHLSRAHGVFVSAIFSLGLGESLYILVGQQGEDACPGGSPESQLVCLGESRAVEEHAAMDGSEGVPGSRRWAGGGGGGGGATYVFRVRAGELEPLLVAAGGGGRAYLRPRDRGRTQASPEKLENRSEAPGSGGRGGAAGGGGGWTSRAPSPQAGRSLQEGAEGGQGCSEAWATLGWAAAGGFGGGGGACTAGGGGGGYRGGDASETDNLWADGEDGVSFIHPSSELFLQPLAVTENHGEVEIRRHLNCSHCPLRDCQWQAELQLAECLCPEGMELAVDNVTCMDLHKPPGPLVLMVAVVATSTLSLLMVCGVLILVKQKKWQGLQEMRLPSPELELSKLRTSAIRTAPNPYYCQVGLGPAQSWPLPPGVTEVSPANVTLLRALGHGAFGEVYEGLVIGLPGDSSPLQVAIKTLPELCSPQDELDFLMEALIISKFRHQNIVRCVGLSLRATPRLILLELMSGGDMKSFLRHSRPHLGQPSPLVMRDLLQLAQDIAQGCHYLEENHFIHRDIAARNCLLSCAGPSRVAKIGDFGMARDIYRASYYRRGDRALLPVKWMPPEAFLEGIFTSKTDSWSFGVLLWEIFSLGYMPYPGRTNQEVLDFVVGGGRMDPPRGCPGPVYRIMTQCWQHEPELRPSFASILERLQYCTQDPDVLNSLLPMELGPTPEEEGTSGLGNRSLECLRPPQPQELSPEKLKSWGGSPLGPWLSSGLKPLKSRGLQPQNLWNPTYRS
Chain of CDK1-CCNB1 (P06493 whole entry): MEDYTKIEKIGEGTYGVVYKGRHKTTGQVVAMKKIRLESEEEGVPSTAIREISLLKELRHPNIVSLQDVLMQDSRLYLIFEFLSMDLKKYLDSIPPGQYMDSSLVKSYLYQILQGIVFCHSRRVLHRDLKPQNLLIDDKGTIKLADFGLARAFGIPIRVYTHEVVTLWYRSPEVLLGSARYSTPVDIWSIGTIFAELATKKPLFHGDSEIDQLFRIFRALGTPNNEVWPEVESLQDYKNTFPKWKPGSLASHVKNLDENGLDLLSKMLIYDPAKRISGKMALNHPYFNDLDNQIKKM
Chain of CDK1-CCNB1 (P14635 whole entry partner): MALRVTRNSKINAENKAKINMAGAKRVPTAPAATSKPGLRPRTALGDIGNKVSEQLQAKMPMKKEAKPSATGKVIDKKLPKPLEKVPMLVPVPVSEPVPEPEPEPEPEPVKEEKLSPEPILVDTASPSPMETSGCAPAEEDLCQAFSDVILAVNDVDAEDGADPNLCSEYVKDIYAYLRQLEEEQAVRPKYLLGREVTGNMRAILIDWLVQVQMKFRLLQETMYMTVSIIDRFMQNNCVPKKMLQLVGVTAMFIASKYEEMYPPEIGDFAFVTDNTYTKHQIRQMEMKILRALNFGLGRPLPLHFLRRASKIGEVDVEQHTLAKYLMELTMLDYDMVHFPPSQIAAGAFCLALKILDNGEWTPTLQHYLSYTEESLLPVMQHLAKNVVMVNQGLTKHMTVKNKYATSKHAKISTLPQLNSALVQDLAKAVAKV
Chain of EPHA8 (P29322 28-1005): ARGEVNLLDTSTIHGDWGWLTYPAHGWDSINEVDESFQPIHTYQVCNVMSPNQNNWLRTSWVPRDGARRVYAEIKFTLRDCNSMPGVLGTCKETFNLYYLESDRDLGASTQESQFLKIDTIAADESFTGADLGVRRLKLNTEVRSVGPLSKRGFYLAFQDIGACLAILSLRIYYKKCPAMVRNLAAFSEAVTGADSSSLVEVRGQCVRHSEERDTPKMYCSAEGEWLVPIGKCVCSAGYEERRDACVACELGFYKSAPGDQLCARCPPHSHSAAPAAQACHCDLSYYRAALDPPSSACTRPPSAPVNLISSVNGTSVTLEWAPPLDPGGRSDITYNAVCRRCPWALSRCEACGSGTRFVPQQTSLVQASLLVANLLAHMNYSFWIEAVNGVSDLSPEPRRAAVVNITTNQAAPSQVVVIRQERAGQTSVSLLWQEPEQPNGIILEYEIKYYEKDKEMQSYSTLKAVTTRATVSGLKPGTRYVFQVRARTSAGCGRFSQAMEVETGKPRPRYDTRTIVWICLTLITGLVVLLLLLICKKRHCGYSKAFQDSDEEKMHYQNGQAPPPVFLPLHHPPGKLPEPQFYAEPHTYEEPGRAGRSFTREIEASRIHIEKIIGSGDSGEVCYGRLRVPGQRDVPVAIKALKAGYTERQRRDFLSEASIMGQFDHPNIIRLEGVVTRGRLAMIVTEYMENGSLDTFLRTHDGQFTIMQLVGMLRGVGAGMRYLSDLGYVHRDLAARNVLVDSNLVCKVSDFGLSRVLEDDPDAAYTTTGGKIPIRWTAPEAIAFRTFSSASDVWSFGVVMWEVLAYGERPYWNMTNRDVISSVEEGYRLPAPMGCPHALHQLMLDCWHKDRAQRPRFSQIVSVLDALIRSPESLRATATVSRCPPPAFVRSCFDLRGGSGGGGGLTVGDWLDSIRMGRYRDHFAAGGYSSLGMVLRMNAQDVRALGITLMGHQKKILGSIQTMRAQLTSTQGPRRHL
T3 sequence (Q13882 whole entry): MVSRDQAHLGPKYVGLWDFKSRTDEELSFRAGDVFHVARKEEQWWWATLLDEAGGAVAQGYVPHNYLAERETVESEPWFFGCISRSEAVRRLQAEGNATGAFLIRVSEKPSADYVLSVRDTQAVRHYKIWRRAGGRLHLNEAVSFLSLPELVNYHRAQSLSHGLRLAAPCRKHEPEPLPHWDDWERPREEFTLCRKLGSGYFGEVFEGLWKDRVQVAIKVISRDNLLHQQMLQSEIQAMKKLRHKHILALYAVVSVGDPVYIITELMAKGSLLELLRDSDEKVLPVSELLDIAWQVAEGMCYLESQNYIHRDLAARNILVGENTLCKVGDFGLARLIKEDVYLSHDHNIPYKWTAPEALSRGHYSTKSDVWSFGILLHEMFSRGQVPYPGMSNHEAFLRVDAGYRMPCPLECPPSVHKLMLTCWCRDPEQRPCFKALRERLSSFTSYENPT
Chain of MAPK14 (Q16539 whole entry): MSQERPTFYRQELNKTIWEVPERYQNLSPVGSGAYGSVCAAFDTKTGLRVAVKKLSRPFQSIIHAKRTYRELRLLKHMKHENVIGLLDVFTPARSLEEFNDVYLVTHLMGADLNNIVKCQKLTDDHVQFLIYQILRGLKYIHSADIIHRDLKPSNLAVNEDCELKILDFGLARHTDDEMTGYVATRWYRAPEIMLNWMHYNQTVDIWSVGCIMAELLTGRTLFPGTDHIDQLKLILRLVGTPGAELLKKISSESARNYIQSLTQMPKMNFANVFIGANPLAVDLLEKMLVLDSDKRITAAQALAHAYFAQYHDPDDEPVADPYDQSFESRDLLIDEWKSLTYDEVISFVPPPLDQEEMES
Chain of GSK3A (P49840 whole entry): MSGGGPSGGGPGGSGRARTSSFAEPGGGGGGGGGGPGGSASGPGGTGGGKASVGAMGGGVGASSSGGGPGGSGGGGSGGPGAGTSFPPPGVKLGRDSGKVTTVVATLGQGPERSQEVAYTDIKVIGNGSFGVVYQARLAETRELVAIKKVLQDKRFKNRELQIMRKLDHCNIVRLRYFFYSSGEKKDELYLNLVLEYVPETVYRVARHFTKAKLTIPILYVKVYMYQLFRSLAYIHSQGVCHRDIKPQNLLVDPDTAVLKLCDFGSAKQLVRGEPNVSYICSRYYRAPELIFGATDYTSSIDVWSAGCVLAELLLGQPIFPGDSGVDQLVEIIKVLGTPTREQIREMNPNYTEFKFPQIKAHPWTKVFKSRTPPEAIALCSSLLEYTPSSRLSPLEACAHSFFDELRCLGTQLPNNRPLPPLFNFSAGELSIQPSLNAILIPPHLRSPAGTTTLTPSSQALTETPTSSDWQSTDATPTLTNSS
Chain of CAMK1 (Q14012 whole entry): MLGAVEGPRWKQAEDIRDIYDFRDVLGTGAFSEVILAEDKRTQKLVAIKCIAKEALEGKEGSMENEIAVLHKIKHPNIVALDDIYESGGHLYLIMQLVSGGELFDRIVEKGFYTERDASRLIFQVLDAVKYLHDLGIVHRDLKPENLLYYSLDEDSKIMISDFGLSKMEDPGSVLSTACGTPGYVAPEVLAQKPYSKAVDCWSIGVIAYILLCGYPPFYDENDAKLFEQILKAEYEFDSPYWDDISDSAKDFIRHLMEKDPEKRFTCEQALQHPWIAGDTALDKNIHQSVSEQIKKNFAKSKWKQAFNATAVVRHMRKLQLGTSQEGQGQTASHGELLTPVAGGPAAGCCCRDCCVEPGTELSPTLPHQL

CNC(=O)c1cc(Oc2ccc(NC(=O)Nc3cc(C(C)(C)C)on3)cc2)ccn1 [MA68, reference compound]
remaining activity at 1 µM [1]: 3.8%
remaining activity at 1 µM [2]: 99.5%
Tracer bound [3]: 41.1%
remaining activity at 1 µM [4]: 102%
remaining activity at 1 µM [5]: 98%
remaining activity at 1 µM [6]: 100%
solubility [7]: 45.8 µM (≈ 18.8 µg/mL)
remaining activity at 1 µM [8]: 100%
remaining activity at 1 µM [9]: 38.9%
remaining activity at 1 µM [10]: 67.6%
Tracer bound [11]: 25.9%
remaining activity at 1 µM [12]: 112%
remaining activity at 1 µM [13]: 109%
remaining activity at 1 µM [14]: 104%
remaining activity at 1 µM [15]: 24%
remaining activity at 1 µM [16]: 71.8%
remaining activity at 1 µM [17]: 27.1%
remaining activity at 1 µM [18]: 111%
remaining activity at 1 µM [19]: 95.9%
remaining activity at 1 µM [20]: 104%
remaining activity at 1 µM [21]: 102%

Cc1ncsc1-c1ccc([C@H](C)NC(=O)[C@@H]2C[C@@H](O)CN2C(=O)[C@@H](NC(=O)[C@H]2CC[C@H](C(=O)N3CCC(CCNC(=O)c4cc(Oc5ccc(NC(=O)Nc6cc(C(C)(C)C)on6)cc5)ccn4)CC3)CC2)C(C)(C)C)cc1 [MA190, 4-(4-(3-(5-(tert-Butyl)isoxazol-3-yl)ureido)phenoxy)-N-(2-(1-(trans-4-(((S)-1-((2S,4R)-4-hydroxy-2-(((S)-1-(4-(4-methylthiazol-5-yl)phenyl)ethyl)carbamoyl)pyrrolidin-1-yl)-3,3-dimethyl-1-oxobutan-2-yl)carbamoyl)cyclohexanecarbonyl)piperidin-4-yl)ethyl)picolinamide]
induction of late apoptosis [22]: most effective in inducing late apoptosis

Cc1ncsc1-c1ccc([C@H](C)NC(=O)[C@@H]2C[C@@H](O)CN2C(=O)[C@@H](NC(=O)[C@H]2CC[C@H](C(=O)N3CCN(CCNC(=O)c4cc(Oc5ccc(NC(=O)Nc6cc(C(C)(C)C)on6)cc5)ccn4)CC3)CC2)C(C)(C)C)cc1 [MA191, 4-(4-(3-(5-(tert-Butyl)isoxazol-3-yl)ureido)phenoxy)-N-(2-(4-(trans-4-(((S)-1-((2S,4R)-4-hydroxy-2-(((S)-1-(4-(4-methylthiazol-5-yl)phenyl)ethyl)carbamoyl)pyrrolidin-1-yl)-3,3-dimethyl-1-oxobutan-2-yl)carbamoyl)cyclohexanecarbonyl)piperazin-1-yl)ethyl)picolinamide]
remaining activity at 1 µM [1]: 120%
remaining activity at 1 µM [2]: 120%
Tracer bound [3]: 120.0%
remaining activity at 1 µM [4]: 116%
remaining activity at 1 µM [5]: 81.9%
remaining activity at 1 µM [6]: 98.5%
solubility [7]: 47.7 µM (≈ 51.9 µg/mL)
remaining activity at 1 µM [8]: 93.6%
remaining activity at 1 µM [9]: 120%
remaining activity at 1 µM [10]: 118%
Tracer bound [11]: 70.3%
remaining activity at 1 µM [12]: 110%
remaining activity at 1 µM [13]: 105%
remaining activity at 1 µM [14]: 92.5%
remaining activity at 1 µM [15]: 96.2%
induction of late apoptosis [22]: most effective in inducing late apoptosis
remaining activity at 1 µM [16]: 105%
remaining activity at 1 µM [17]: 108%
remaining activity at 1 µM [18]: 107%
remaining activity at 1 µM [19]: 118%
remaining activity at 1 µM [20]: 120%
remaining activity at 1 µM [21]: 101%
